Several values for one entry are separate records, joined by “and”; a condition that tells them apart may be missing. Equal entries are not always repeated.
What was measured:
[1] = tested on: complement serum (guinea pig complement); assay: Anti-complement activity: 50% inhibition of hemolysis of sensitized erythrocytes; format: cell-based; settings: Cavia porcellus, Erythrocyte, 1 h, 37° C., 60 minutes, guinea pig complement diluted 150 times, OD413, read-out: Anti-Complement Activity Value (50% hemolysis inhibitory activity value)
Description: The anti-complement activity was measured and confirmed by the testing method described in Meneki Kagaku (Immuno-Chemistry), Yuichi Yamamura et al., Ed. pages 830-834, Asakura Shoten, Tokyo, Japan (1973). Specifically,a test tube was charged with 0.5 ml of an aqueous dispersion of each of the test compounds, 0.5 ml of sensitized erythrocytes (EA) containing 1×10^8 cells/ml, 1 ml of a 5-fold diluted solution of a Veronal buffer solution containing gelatin, Ca^++ and Mg^++ (GVB^++), and 0.5 ml of complement serum (guinea pig complement) diluted to 150 times with the GVB^++. The mixture was maintained hot at 37° C. for 60 minutes. Then, 5 ml of an ice-cold physiological saline solution was added thereto, and the mixture was centrifuged. […] The 50% hemolysis inhibitory activity value (γ/ml) measured by the above method is shown in Table 2 below for each test compound.

Heymann-type Nephritis = assay: Therapeutic effects on Heymann-type nephritis (proteinuria); format: in vivo, male Wistar rats; settings: for amount of proteinurea, Average: average of 3 replications; for amount of proteinurea: individual replication
Description: Male Wistar rats with a body weight of 180 to 200 g were used in the test. Rat kidney cortex was extracted, and homogenized with an equal quantity by volume of a physiological saline solution. The homogenate was centrifuged at 1500 G for 1 hour. The supernatant liquid was purified in accordance with the method of T. S. […] The resulting mixture was injected intraperitoneally into isologous rats in an amount of 0.5 ml per rat. […] (This period was about 6 to 8 weeks.) […] CP was used as a comparison compound, and physiological saline solution was used as a control. Three replications were conducted for each test compound.

[2] = Acute toxicity on intravenous administration to mice; settings: mouse, in vivo
[3] = tested on: Nephrotoxin-Type Nephritis; assay: Therapeutic effect on nephrotoxin-type nephritis (proteinuria); format: in vivo, male Wistar rats; settings: 7 days; for amount of proteinurea, Average: average of 3 replications; for amount of proteinurea: individual replication
Excerpt: Rat nephrotoxin ("NT" for brevity) was obtained as described below. Rat kidney cortex was homogenized with an equal quantity of physiological saline. The homogenized mixture was mixed with Freund's complete adjuvant (a product of Difco Company) in a volume ratio of 1:1. Two milliliters of the resulting mixture was intramuscularly injected into a rabbit (body weight 3,100 g) to immunize the rabbit. A month and a half later, blood was taken from the heart of the rabbit and serum was obtained. The resulting serum was inactivated at 56° C. for 30 minutes, then salted out with a 40% saturated aqueous solution of ammonium sulfate, and fractionated. The γ-globulin (IgG) fraction was collected to obtain NT.
The evaluation was carried out using male Wistar rats with a body weight of 150 to 160 g with three replications for each test compound. The test compound was intraperitoneally administered once every 24 hours for seven days. One hour after the administration of the test compound on the third day, the NT was applied. The NT was intravenously injected in an amount of 1 ml at a tail vein of each rat. Chlorophyllin (CP) was used as a comparison compound, and physiological saline solution was used as a control.
The proteinuria level (total amount excreted into the urine over a 24 hour period) was measured using turbidometry employing bovine serum albumin as a control by means of sulfosalicylic acid.

[4] = Before Administration, group of 5 mg per rat i.p.
[5] = Day 1, 5 mg per rat i.p. once a day, 7 days
[6] = Day 4, 5 mg per rat i.p. once a day, 7 days
[7] = Day 7, 5 mg per rat i.p. once a day, 7 days
[8] = Day 14, 5 mg per rat i.p. once a day, 7 days
[9] = Day 21, 5 mg per rat i.p. once a day, 7 days
[10] = Day 1, 5 mg per rat i.p. once daily
[11] = Day 4, 5 mg per rat i.p. once daily
[12] = Day 7, 5 mg per rat i.p. once daily
[13] = Day 10, 5 mg per rat i.p. once daily
[14] = Before Administration, group of 3 mg per rat i.p.
[15] = Day 1, 3 mg per rat i.p. once a day, 7 days
[16] = Day 4, 3 mg per rat i.p. once a day, 7 days
[17] = Day 7, 3 mg per rat i.p. once a day, 7 days
[18] = Day 14, 3 mg per rat i.p. once a day, 7 days
[19] = Day 21, 3 mg per rat i.p. once a day, 7 days
[20] = Day 1, 3 mg per rat i.p. once daily
[21] = Day 4, 3 mg per rat i.p. once daily
[22] = Day 7, 3 mg per rat i.p. once daily
[23] = Day 10, 3 mg per rat i.p. once daily

In the case of `CC1CCC2C(C)(C)C(O)C(O)CC2(C)C12Cc1c(O)cc(C=C(C#N)C(=O)O)c(C=C(C#N)C(=O)O)c1O2` (stereo not drawn) [(6), 6,7-Dihydroxy-2,5,5,8a-tetramethyl-1,2,3,4,4a,5,6,7,8,8a-decahydronaphthalene-1-spiro-2'-[6',7'-di-(2-cyano-2-carboxyvinyl)-4'-hydroxy-2',3'-dihydrobenzofuran]], the IC50 [1] was 40 µg/mL, the “amount of proteinurea, Average” value (Heymann-type Nephritis; [4]) was 121 mg/day and the amount of proteinurea (Heymann-type Nephritis; [4]) was 98 mg/day and 127 mg/day and 139 mg/day. For the same compound, the “amount of proteinurea, Average” value (Heymann-type Nephritis; [5]) was 116 mg/day, the amount of proteinurea (Heymann-type Nephritis; [5]) was 113 mg/day and 121 mg/day and 116 mg/day and the “amount of proteinurea, Average” value (Heymann-type Nephritis; [6]) was 56 mg/day. For the same compound, the amount of proteinurea (Heymann-type Nephritis; [6]) was 48 mg/day and 63 mg/day and 57 mg/day, the “amount of proteinurea, Average” value (Heymann-type Nephritis; [7]) was 37 mg/day and the amount of proteinurea (Heymann-type Nephritis; [7]) was 36 mg/day and 47 mg/day and 29 mg/day. The “amount of proteinurea, Average” value (Heymann-type Nephritis; [8]) was 17 mg/day, the amount of proteinurea (Heymann-type Nephritis; [8]) was 18 mg/day and 21 mg/day and 13 mg/day and the “amount of proteinurea, Average” value (Heymann-type Nephritis; [9]) was 12 mg/day. For the same compound, the amount of proteinurea (Heymann-type Nephritis; [9]) was 8 mg/day and 15 mg/day and 14 mg/day, the LD50 [2] was 250 mg/kg and the “amount of proteinurea, Average” value [3, 10] was 2.5 mg/day. For the same compound, the amount of proteinurea [3, 10] was 2.1 mg/day and 1.5 mg/day and 3.7 mg/day, the “amount of proteinurea, Average” value [3, 11] was 1.8 mg/day and the amount of proteinurea [3, 11] was 1.9 mg/day and 1.2 mg/day and 2.3 mg/day. The “amount of proteinurea, Average” value [3, 12] was 1.0 mg/day, the amount of proteinurea [3, 12] was 0.8 mg/day and 0.9 mg/day and 1.4 mg/day and the “amount of proteinurea, Average” value [3, 13] was 10 mg/day. For the same compound, the amount of proteinurea [3, 13] was 13 mg/day and 7 mg/day and 9 mg/day.

With `CC1CCC2C(C)(C)C(O)C(O)CC2(C)C12Cc1c(O)cc(C=O)c(C(=O)O)c1O2` (stereo not drawn) [(67), Disodium 6,7-dihydroxy-2,5,5,8a-tetramethyl-1,2,3,4,4a,5,6,7,8,8a-decahydronaphthalene-1-spiro-2'-(7'carboxylate-6'-formyl-4'-oxide-2',3'-dihydrobenzofuran)] the IC50 [1] was 60 µg/mL, the “amount of proteinurea, Average” value (Heymann-type Nephritis; [4]) was 118 mg/day and the amount of proteinurea (Heymann-type Nephritis; [4]) was 117 mg/day and 132 mg/day and 105 mg/day. The “amount of proteinurea, Average” value (Heymann-type Nephritis; [5]) was 117 mg/day, the amount of proteinurea (Heymann-type Nephritis; [5]) was 109 mg/day and 127 mg/day and 114 mg/day and the “amount of proteinurea, Average” value (Heymann-type Nephritis; [6]) was 59 mg/day. For the same compound, the amount of proteinurea (Heymann-type Nephritis; [6]) was 59 mg/day and 67 mg/day and 51 mg/day, the “amount of proteinurea, Average” value (Heymann-type Nephritis; [7]) was 30 mg/day and the amount of proteinurea (Heymann-type Nephritis; [7]) was 23 mg/day and 41 mg/day and 25 mg/day. The “amount of proteinurea, Average” value (Heymann-type Nephritis; [8]) was 14 mg/day, the amount of proteinurea (Heymann-type Nephritis; [8]) was 13 mg/day and 17 mg/day and 11 mg/day and the “amount of proteinurea, Average” value (Heymann-type Nephritis; [9]) was 11 mg/day. For the same compound, the amount of proteinurea (Heymann-type Nephritis; [9]) was 9 mg/day and 13 mg/day and 12 mg/day, the LD50 [2] was 500 mg/kg and the “amount of proteinurea, Average” value [3, 10] was 3.0 mg/day. The amount of proteinurea [3, 10] was 2.7 mg/day and 4.1 mg/day and 2.3 mg/day, the “amount of proteinurea, Average” value [3, 11] was 1.7 mg/day and the amount of proteinurea [3, 11] was 1.8 mg/day and 2.0 mg/day and 1.3 mg/day. The “amount of proteinurea, Average” value [3, 12] was 1.1 mg/day, the amount of proteinurea [3, 12] was 0.7 mg/day and 1.5 mg/day and 1.2 mg/day and the “amount of proteinurea, Average” value [3, 13] was 9 mg/day. For the same compound, the amount of proteinurea [3, 13] was 9 mg/day and 12 mg/day and 7 mg/day.

In the case of `CC1CCC2C(C)(C)C(O)C(O)CC2(C)C12Cc1c(O)cc(C=O)c(C=O)c1O2` (stereo not drawn) [(1), 6,7-Dihydroxy-2,5,5,8a-tetramethyl-1,2,3,4,4a,5,6,7,8,8a-decahydronaphthalene-1-spiro-2'-(6',7'-diformyl-4'-hydroxy-2',3'-dihydrobenzofuran)], the IC50 [1] was 10 µg/mL, the “amount of proteinurea, Average” value (Heymann-type Nephritis; [14]) was 116 mg/day and the amount of proteinurea (Heymann-type Nephritis; [14]) was 95 mg/day and 132 mg/day and 121 mg/day. For the same compound, the “amount of proteinurea, Average” value (Heymann-type Nephritis; [15]) was 111 mg/day, the amount of proteinurea (Heymann-type Nephritis; [15]) was 90 mg/day and 125 mg/day and 120 mg/day and the “amount of proteinurea, Average” value (Heymann-type Nephritis; [16]) was 61 mg/day. The amount of proteinurea (Heymann-type Nephritis; [16]) was 47 mg/day and 65 mg/day and 70 mg/day, the “amount of proteinurea, Average” value (Heymann-type Nephritis; [17]) was 26 mg/day and the amount of proteinurea (Heymann-type Nephritis; [17]) was 17 mg/day and 35 mg/day and 27 mg/day. For the same compound, the “amount of proteinurea, Average” value (Heymann-type Nephritis; [18]) was 11 mg/day, the amount of proteinurea (Heymann-type Nephritis; [18]) was 9 mg/day and 15 mg/day and 10 mg/day and the “amount of proteinurea, Average” value (Heymann-type Nephritis; [19]) was 10 mg/day. For the same compound, the amount of proteinurea (Heymann-type Nephritis; [19]) was 10 mg/day and 12 mg/day and 9 mg/day, the LD50 [2] was 40 mg/kg and the “amount of proteinurea, Average” value [3, 20] was 2.8 mg/day. For the same compound, the amount of proteinurea [3, 20] was 2.5 mg/day and 4.3 mg/day and 1.7 mg/day, the “amount of proteinurea, Average” value [3, 21] was 1.6 mg/day and the amount of proteinurea [3, 21] was 1.5 mg/day and 2.1 mg/day and 1.1 mg/day. For the same compound, the “amount of proteinurea, Average” value [3, 22] was 1.2 mg/day, the amount of proteinurea [3, 22] was 0.8 mg/day and 1.8 mg/day and 0.9 mg/day and the “amount of proteinurea, Average” value [3, 23] was 8 mg/day. The amount of proteinurea [3, 23] was 8 mg/day and 10 mg/day and 7 mg/day.

— US4229466A, “Sesquiterpene derivatives having anti-complementary activity” (Otsuka Pharmaceutical Co., Ltd., priority 1977, dated 1980)
